Results on seven compounds are retold here after ChEMBL document CHEMBL1201862, “PubChem BioAssay data set” (2004).

Some test systems named below: HCT-116; MDA-MB-231; NCI/ADR-RES; NCI-H226; SK-MEL-28; SNB-19; HOP-62; PC-3; KM12; SF-295; SR; RXF 393; LOX IMVI; HL-60; SN12C; OVCAR-8; CAKI-1; CCRF-CEM; SW-620; K562.
Holding throughout (assay): NCI tumour cell line growth inhibition, 48 h

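Exposure lasted 48 hours, with cells grown in 96-well plates and compounds tested at five concentrations. GI50 is the concentration that inhibits growth by half.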 Activity calls are given as the source filed them. No stated cut-off is given here; in the data, active = GI50 up to about 1.1 µM and inactive = higher. Starred links: 1 amine or outer side, 2 acyl side, 3 side chain; linkers in the order of their positions; H or OH if unused. Non-standard residues stand in square brackets, D forms with d. Residues, ends and D or L forms follow the SMILES beside them. *: point of attachment. X34 = CC(=O)N(C)SCC(N[*:1])C(=O)[*:2]; Cbz = O=C(OCc1ccccc1)*; Bn = c1ccc(C*)cc1; For = O=C*

Turning to `O=c1[nH]c2nc3ccccc3c(=O)n2/c1=C/c1ccc(O)cc1`, the GI50 in the experiment with HCT-116 is 36.8 µM (inactive); with MDA-MB-231 it was 60.3 µM (inactive); in the experiment on NCI/ADR-RES it was 41.7 µM (inactive); in the experiment with NCI-H226, 38.7 µM (inactive); in the experiment with SK-MEL-28, 28.3 µM (inactive); with SNB-19 it was 21 µM (inactive). The GI50 in the experiment on HOP-62 is 64 µM (inactive); in the experiment with PC-3, 45.3 µM (inactive); in the experiment on KM12, 29.6 µM (inactive); with SF-295, 46.9 µM (inactive); in the experiment with SR, 16.9 µM (inactive); with RXF 393, 40.2 µM (inactive). In addition, the GI50 was 35.6 µM (inactive) in the experiment with LOX IMVI; 26 µM (inactive) in the experiment with HL-60; 30.6 µM (inactive) in the experiment with SN12C; 22 µM (inactive) in the experiment on OVCAR-8; 43.3 µM (inactive) with CAKI-1; 20.8 µM (inactive) with CCRF-CEM. For the same compound, the GI50 in the experiment with SW-620 was 22.6 µM (inactive).

As to `COC(=O)CC(CNC(=O)OCc1ccccc1)OCc1ccc(OC)cc1` (configuration not stated), the GI50 in the experiment with HCT-116 was > 100 µM (inactive); with MDA-MB-231, > 100 µM (inactive); with NCI/ADR-RES, > 100 µM (inactive); in the experiment on NCI-H226, 66.2 µM (inactive); with SK-MEL-28, > 100 µM (inactive); with SNB-19 it was > 100 µM (inactive). Further, the GI50 with K562 was > 100 µM (inactive); in the experiment on PC-3 it was 99.5 µM (inactive); with KM12 it was > 100 µM (inactive); in the experiment with SF-295 it was > 100 µM (inactive); in the experiment with SR it was > 100 µM (inactive); in the experiment on RXF 393 it was > 100 µM (inactive). Also, the GI50 in the experiment with LOX IMVI, in the experiment with HL-60, in the experiment with SN12C, in the experiment with OVCAR-8, with CAKI-1 and with CCRF-CEM was > 100 µM (inactive) in each case. The GI50 in the experiment with SW-620 was > 100 µM (inactive).

As to `CC1=NN(c2nc(N)nc(/C(C#N)=C\c3cccc([N+](=O)[O-])c3)n2)C(C)(C)C1`, the GI50 with HCT-116 is 10.4 µM (inactive); in the experiment with MDA-MB-231, 9.29 µM (inactive); with NCI/ADR-RES, 18.8 µM (inactive); with SK-MEL-28, 19.1 µM (inactive); in the experiment with SNB-19, 10.8 µM (inactive); with K562 it was 11.9 µM (inactive). Besides, the GI50 in the experiment with HOP-62 is 5.13 µM (inactive); with PC-3, 11.5 µM (inactive); in the experiment on KM12, 14.9 µM (inactive); with SF-295 it was 10.2 µM (inactive); in the experiment with SR, 30.1 µM (inactive); in the experiment with RXF 393, 5.19 µM (inactive). The GI50 in the experiment with LOX IMVI was 7.13 µM (inactive); in the experiment with HL-60, 0.205 µM (active); with SN12C, 25.2 µM (inactive); in the experiment with OVCAR-8, 7.29 µM (inactive); with CAKI-1, 12.4 µM (inactive); in the experiment with CCRF-CEM, 10.8 µM (inactive). The GI50 with SW-620 is 8.75 µM (inactive).

For `O=CN(CCN1CCCC1)C1CCc2cc(Cl)c(Cl)cc2C1` (configuration not stated), the GI50 was 10.6 µM (inactive) with HCT-116; 11 µM (inactive) in the experiment with MDA-MB-231; 19.5 µM (inactive) in the experiment on NCI/ADR-RES; 0.851 µM (active) with SNB-19; 20.9 µM (inactive) in the experiment with K562; 11.3 µM (inactive) in the experiment on HOP-62. The GI50 was 11.4 µM (inactive) in the experiment on PC-3; 4.5 µM (inactive) in the experiment on KM12; 0.166 µM (active) in the experiment on SF-295; 23.9 µM (inactive) in the experiment on SR; 10.9 µM (inactive) in the experiment on RXF 393; 14 µM (inactive) in the experiment with LOX IMVI. Besides, the GI50 in the experiment with HL-60 is 19.2 µM (inactive); in the experiment on SN12C it was 11 µM (inactive); in the experiment with OVCAR-8, 20.6 µM (inactive); in the experiment on CAKI-1, 18.9 µM (inactive); with CCRF-CEM, 22.5 µM (inactive); in the experiment on SW-620, 27.3 µM (inactive).

For the compound `Nc1nccc(NCC2(CO)CCC2)n1`, the GI50 with HCT-116, with MDA-MB-231, in the experiment with NCI/ADR-RES, with NCI-H226, in the experiment with SK-MEL-28 and in the experiment with K562 was > 100 µM (inactive) each time. Moreover, the GI50 with HOP-62, in the experiment on PC-3, with KM12, in the experiment with SF-295, in the experiment on SR and with RXF 393 was > 100 µM (inactive) throughout. Further, the GI50 is > 100 µM (inactive) with LOX IMVI; > 100 µM (inactive) in the experiment with HL-60; > 100 µM (inactive) with SN12C; > 100 µM (inactive) with OVCAR-8; 63.4 µM (inactive) with CAKI-1; > 100 µM (inactive) in the experiment on CCRF-CEM. Further, in the experiment on SW-620, the GI50 was > 100 µM (inactive).

Take `CC(C)c1nc2cc(C(F)(F)F)ccc2[nH]c1=O`: the GI50 in the experiment with HCT-116 was 62.2 µM (inactive); in the experiment with MDA-MB-231, 69 µM (inactive); in the experiment with NCI/ADR-RES, 57.8 µM (inactive); in the experiment with NCI-H226, 51.3 µM (inactive); in the experiment with SK-MEL-28 it was > 100 µM (inactive); in the experiment on SNB-19, > 100 µM (inactive). Further, the GI50 is > 100 µM (inactive) with K562; 79.8 µM (inactive) in the experiment on HOP-62; 77.8 µM (inactive) in the experiment on PC-3; > 100 µM (inactive) with KM12; > 100 µM (inactive) with SF-295; 43.3 µM (inactive) in the experiment on SR. Moreover, the GI50 with RXF 393 was 49.1 µM (inactive); in the experiment with HL-60 it was 54 µM (inactive); with SN12C it was > 100 µM (inactive); in the experiment with OVCAR-8, > 100 µM (inactive); in the experiment on CAKI-1 it was 72.6 µM (inactive); with CCRF-CEM, 0.361 µM (active). In the experiment on SW-620, the GI50 was > 100 µM (inactive).

For `CC(=O)N(C)SCC(NC(=O)C(Cc1ccccc1)NC(=O)OCc1ccccc1)C(=O)NC(Cc1ccccc1)C(=O)NC(Cc1cn(C=O)c2ccccc12)C(=O)NC(CCCCNC(=O)OCc1ccccc1)C(=O)NC(C(=O)NC(CSN(C)C(C)=O)C(=O)NC(C(N)=O)C(C)OCc1ccccc1)C(C)OCc1ccccc1` (configuration not stated) (Cbz-F[X34]FW(For)K(Cbz)T(Bn)[X34]T(Bn)-NH2; configuration not given here), the GI50 with HCT-116 was 61.5 µM (inactive); in the experiment on MDA-MB-231 it was 14.7 µM (inactive); with NCI/ADR-RES, > 100 µM (inactive); in the experiment on NCI-H226, > 100 µM (inactive); in the experiment on SK-MEL-28, > 100 µM (inactive); in the experiment with SNB-19, 18.7 µM (inactive). In addition, the GI50 in the experiment with K562 was > 100 µM (inactive); in the experiment with HOP-62, 82.8 µM (inactive); in the experiment on PC-3, > 100 µM (inactive); with KM12, > 100 µM (inactive); with SF-295, 16.1 µM (inactive); in the experiment with SR, > 100 µM (inactive). In addition, the GI50 was 14.6 µM (inactive) in the experiment on RXF 393; > 100 µM (inactive) in the experiment with LOX IMVI; > 100 µM (inactive) with HL-60; > 100 µM (inactive) with SN12C; 26.1 µM (inactive) in the experiment on OVCAR-8; > 100 µM (inactive) in the experiment on CCRF-CEM. Also, the GI50 with SW-620 was > 100 µM (inactive).
